Test results published in US8569292B2, “Cyclic inhibitors of 11β-hydroxysteroid dehydrogenase 1” (Vitae Pharmaceuticals, Inc., priority 2008, dated 2013).

Columns and labels:
CYP2C9 = target: T1, CYP2C9 (Homo sapiens, UniProt P11712); assay: Biological Test Example 9: CYP2C9 inhibition (Invitrogen kit, fluorogenic OOMR); type: in vitro ADME
T1 construct: purchased Invitrogen 2859; host or cells: insect cells infected with baculovirus (microsomes)

11β-HSD1 [1] = target: T2, 11β-HSD1 (Homo sapiens, UniProt P28845); assay: biochemical; conditions: for inhibition at 0.1 µM: read-out: Average % inhibition at 100 nM
T2 sequence (P28845 whole entry): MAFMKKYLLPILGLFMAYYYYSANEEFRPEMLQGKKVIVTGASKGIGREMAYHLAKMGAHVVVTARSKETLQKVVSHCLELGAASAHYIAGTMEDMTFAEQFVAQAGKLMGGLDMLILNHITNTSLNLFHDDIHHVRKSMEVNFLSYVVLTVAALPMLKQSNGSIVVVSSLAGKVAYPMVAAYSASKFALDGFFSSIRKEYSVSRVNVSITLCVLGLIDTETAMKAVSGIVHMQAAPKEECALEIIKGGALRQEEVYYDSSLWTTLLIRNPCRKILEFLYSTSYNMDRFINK

11β-HSD1 [2] = target: T2, 11β-HSD1; assay: Biological Test Example 4: microsomal 11β-HSD1 in the presence of 50% human plasma; conditions: for Shift: IC50 in Test Example 4 divided by IC50 in Test Example 1
[3] = Biological Test Example 1 IC50 (nM)
[4] = IC50 Range, Biological Test Example 1

T1 sequence (P11712 whole entry): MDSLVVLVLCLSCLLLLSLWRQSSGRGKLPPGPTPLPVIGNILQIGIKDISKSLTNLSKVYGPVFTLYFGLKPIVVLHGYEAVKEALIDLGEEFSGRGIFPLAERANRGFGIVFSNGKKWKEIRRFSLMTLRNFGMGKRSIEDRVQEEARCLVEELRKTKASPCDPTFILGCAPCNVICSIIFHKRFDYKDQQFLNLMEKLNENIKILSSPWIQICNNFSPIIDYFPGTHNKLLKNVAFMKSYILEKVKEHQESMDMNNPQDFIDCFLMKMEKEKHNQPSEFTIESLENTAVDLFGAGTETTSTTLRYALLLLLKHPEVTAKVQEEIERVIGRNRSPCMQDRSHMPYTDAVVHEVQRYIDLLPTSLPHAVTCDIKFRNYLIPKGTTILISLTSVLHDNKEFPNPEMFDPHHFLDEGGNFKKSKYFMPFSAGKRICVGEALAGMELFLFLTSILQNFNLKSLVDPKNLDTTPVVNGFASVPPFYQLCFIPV

IC50 (CYP2C9) [nM] | IC50 (11β-HSD1 [1]; [3]) [nM] | IC50 (11β-HSD1 [1]; [4]) [nM] | inhibition at 0.1 µM (11β-HSD1 [1]) [%] | IC50 (11β-HSD1 [2]) [nM] | Shift (11β-HSD1 [2]) | SMILES
6600 | 1.3 | < 100 | 98.7 | 18.5 | 14.6 | COc1cncc(-c2ccc([C@H](C)N3CC[C@](CCCO)(c4ccc(F)cc4)OC3=O)cc2)c1 [EXAMPLE 53, (R)-6-(4-fluorophenyl)-6-(3-hydroxypropyl)-3-((S)-1-(4-(5-methoxypyridin-3-yl)phenyl)ethyl)-1,3-oxazinan-2-one]
2900 | 7.4 | < 100 | 92.4 | 22.8 | 3.1 | C[C@@H](c1ccc(-c2ncccn2)cc1)N1CC[C@](CCCO)(c2ccc(F)cc2)OC1=O [EXAMPLE 113, (R)-6-(4-fluorophenyl)-6-(3-hydroxypropyl)-3-((S)-1-(4-(pyrimidin-2-yl)phenyl)ethyl)-1,3-oxazinan-2-one]
> 30000 | 1 | < 100 | 102 | 6.6 | 6.3 | Cc1ccc(-c2ccc([C@H](C)N3CC[C@](CCCO)(c4ccc(F)cc4)OC3=O)cc2)c(C)n1 [EXAMPLE 141, (R)-3-((S)-1-(4-(2,6-dimethylpyridin-3-yl)phenyl)ethyl)-6-(4-fluorophenyl)-6-(3-hydroxypropyl)-1,3-oxazinan-2-one]
20100 | 0.9 | < 100 | 93.4 | 4.5 | 5.0 | C[C@@H](c1ccc(-c2cnc(-n3ccnc3)nc2)cc1)N1CC[C@](CC(C)(C)O)(c2ccccc2)OC1=O [EXAMPLE 14, (S)-3-((S)-1-(4-(2-(1H-imidazol-1-yl)pyrimidin-5-yl)phenyl)ethyl)-6-(2-hydroxy-2-methylpropyl)-6-phenyl-1,3-oxazinan-2-one]
400 | 1 | < 100 | 97.1 | 39.4 | 38.4 | C=CC[C@]1(c2ccc(F)cc2)CCN([C@@H](C)c2ccc(-c3cncc(Cl)c3)cc2)C(=O)O1 [EXAMPLE 54, (R)-6-allyl-3-((S)-1-(4-(5-chloropyridin-3-yl)phenyl)ethyl)-6-(4-fluorophenyl)-1,3-oxazinan-2-one]
3900 | 1 | < 100 | 94.7 | 8.8 | 8.9 | Cc1nc(C)c(-c2ccc([C@H](C)N3CC[C@](CCCO)(c4ccc(F)cc4)OC3=O)cc2)s1 [EXAMPLE 83, (R)-3-((S)-1-(4-(2,4-dimethylthiazol-5-yl)phenyl)ethyl)-6-(4-fluorophenyl)-6-(3-hydroxypropyl)-1,3-oxazinan-2-one]
4700 | 6.7 | < 100 | 93.1 | 24.2 | 3.6 | Cc1cc(-c2ccc([C@H](C)N3CC[C@](CCCO)(c4ccccc4)OC3=O)cc2)cc(C)[n+]1[O-] [EXAMPLE 120, 4-(4-((S)-1-((R)-6-(3-hydroxypropyl)-2-oxo-6-phenyl-1,3-oxazinan-3-yl)ethyl)phenyl)-2,6-dimethylpyridine 1-oxide]
8500 | 2.5 | < 100 | 94.3 | 6.1 | 2.5 | C[C@@H](c1ccc(-c2cccnc2)cc1)N1CC[C@](CCO)(c2ccc(F)cc2)OC1=O [EXAMPLE 37, (S)-6-(4-fluorophenyl)-6-(2-hydroxyethyl)-3-((S)-1-(4-(pyridin-3-yl)phenyl)ethyl)-1,3-oxazinan-2-one]
700 | 1.5 | < 100 | 96.1 | 60.7 | 40.6 | C=CC[C@]1(c2ccc(F)cc2)CCN([C@@H](C)c2ccc(-c3cncc(F)c3)cc2)C(=O)O1 [EXAMPLE 51, (R)-6-allyl-6-(4-fluorophenyl)-3-((S)-1-(4-(5-fluoropyridin-3-yl)phenyl)ethyl)-1,3-oxazinan-2-one]
20600 | 1.1 | < 100 | 98.7 | 6.8 | 6.4 | C[C@@H](c1ccc(-c2ccc(C(N)=O)cn2)cc1)N1CC[C@](CCCO)(c2ccccc2)OC1=O [EXAMPLE 140, 6-(4-((S)-1-((R)-6-(3-hydroxypropyl)-2-oxo-6-phenyl-1,3-oxazinan-3-yl)ethyl)phenyl)nicotinamide]
17300 | 1.4 | < 100 | 90.2 | 13.7 | – | C[C@@H](c1ccc(-c2cccnc2)cc1)N1CC[C@](CCCNS(C)(=O)=O)(c2ccccc2)OC1=O [EXAMPLE 91, N-(3-((R)-2-oxo-6-phenyl-3-((S)-1-(4-(pyridin-3-yl)phenyl)ethyl)-1,3-oxazinan-6-yl)propyl)methanesulfonamide]
16900 | 0.8 | < 100 | 97.4 | 7.2 | – | C[C@@H](c1ccc(-c2ccccn2)cc1)N1CC[C@](CC(C)(C)O)(c2ccc(F)cc2)OC1=O [EXAMPLE 58, (S)-6-(4-fluorophenyl)-6-(2-hydroxy-2-methylpropyl)-3-((S)-1-(4-(pyridin-2-yl)phenyl)ethyl)-1,3-oxazinan-2-one]
1400 | 0.7 | < 100 | 100 | 4.2 | – | C[C@@H](c1ccc(-c2ccc(C(F)(F)F)nc2)cc1)N1CC[C@](CCCO)(c2ccc(F)cc2)OC1=O [EXAMPLE 44, (R)-6-(4-fluorophenyl)-6-(3-hydroxypropyl)-3-((S)-1-(4-(6-(trifluoromethyl)pyridin-3-yl)phenyl)ethyl)-1,3-oxazinan-2-one]
4800 | 2.3 | < 100 | 97.3 | 7.5 | – | Cc1cc(-c2ccc([C@H](C)N3CC[C@](CC(C)(C)O)(c4ccccc4)OC3=O)cc2)cc(C)[n+]1[O-] [EXAMPLE 121, 4-(4-((S)-1-((S)-6-(2-hydroxy-2-methylpropyl)-2-oxo-6-phenyl-1,3-oxazinan-3-yl)ethyl)phenyl)-2,6-dimethylpyridine 1-oxide]
4300 | 0.6 | < 100 | 98.6 | 6.8 | 12.3 | C[C@@H](c1ccc(-c2ccnc(N)c2)cc1)N1CC[C@](CCCO)(c2ccccc2)OC1=O [EXAMPLE 125, (R)-3-((S)-1-(4-(2-aminopyridin-4-yl)phenyl)ethyl)-6-(3-hydroxypropyl)-6-phenyl-1,3-oxazinan-2-one]
2700 | 3.2 | < 100 | 95.5 | 86.4 | 26.9 | Cc1cc(-c2ccc([C@H](C)N3CC[C@@](C)(c4ccc(F)cc4)OC3=O)cc2)ccn1 (single isomer, unassigned) [EXAMPLE 107.1]
4000 | 0.4 | < 100 | 99 | 3.8 | 8.8 | COc1ccc(-c2ccc([C@H](C)N3CC[C@](CCCO)(c4ccc(F)cc4)OC3=O)cc2)cn1 [EXAMPLE 65, (R)-6-(4-fluorophenyl)-6-(3-hydroxypropyl)-3-((S)-1-(4-(6-methoxypyridin-3-yl)phenyl)ethyl)-1,3-oxazinan-2-one]
3300 | 1.1 | < 100 | 96.5 | 8.5 | – | C[C@@H](c1ccc(-c2ccncn2)cc1)N1CC[C@](CCCO)(c2ccc(F)cc2)OC1=O [EXAMPLE 128, (R)-6-(4-fluorophenyl)-6-(3-hydroxypropyl)-3-((S)-1-(4-(pyrimidin-4-yl)phenyl)ethyl)-1,3-oxazinan-2-one]
28300 | 4.3 | < 100 | 93.9 | 17.3 | 4.1 | C[C@@H](c1ccc(-c2cncnc2)cc1)N1CC[C@](CCCO)(c2ccc(F)cc2)OC1=O [EXAMPLE 129, (R)-6-(4-fluorophenyl)-6-(3-hydroxypropyl)-3-((S)-1-(4-(pyrimidin-5-yl)phenyl)ethyl)-1,3-oxazinan-2-one]
9100 | 6.6 | < 100 | 93.6 | 11.1 | 1.7 | Cc1cc(-c2ccc([C@H](C)N3CC[C@](CC(C)(C)O)(c4ccc(F)cc4)OC3=O)cc2)cc(C)[n+]1[O-] [EXAMPLE 123, 4-(4-((S)-1-((S)-6-(4-fluorophenyl)-6-(2-hydroxy-2-methylpropyl)-2-oxo-1,3-oxazinan-3-yl)ethyl)phenyl)-2,6-dimethylpyridine 1-oxide]
5300 | 0.7 | < 100 | 99.6 | 3.7 | 5.1 | Cc1cc(-c2ccc([C@H](C)N3CC[C@](CC(C)(C)C#N)(c4ccc(F)cc4)OC3=O)cc2)ccn1 [EXAMPLE 116, 3-((R)-6-(4-fluorophenyl)-3-((S)-1-(4-(2-methylpyridin-4-yl)phenyl)ethyl)-2-oxo-1,3-oxazinan-6-yl)-2,2-dimethylpropanenitrile]
5300 | 4.9 | < 100 | 93.3 | 4.3 | 0.9 | C[C@@H](c1ccc(-c2ccc(C(C)(C)O)nn2)cc1)N1CC[C@](CC(C)(C)O)(c2ccccc2)OC1=O [EXAMPLE 7, (S)-6-(2-hydroxy-2-methylpropyl)-3-((S)-1-(4-(6-(2-hydroxypropan-2-yl)pyridazin-3-yl)phenyl)ethyl)-6-phenyl-1,3-oxazinan-2-one]
